Measured values published in patent publication US12122750B2, “AT2R antagonists and uses thereof” (Eli Lilly and Company, priority 2022, dated 2024).
pKi: −log10 of the molar value.

Molecular target: recombinant human angiotensin-II receptor subtype 2 (hAT2R) (Homo sapiens (Human), UniProt P50052)
Test: Competitive radioligand binding assay (SPA), hAT2R HEK293 membranes
Conditions: [125I]-Tyr4-Angiotensin-II, read-out: AT2R Ki
Description: Compound Solubilization Test and reference compounds were received as dry powder reagents, weighed, and solubilized in 100% DMSO to generate a working stock concentration of 10 mM. Membrane Preparation Protocol (hAT2R HEK293 and rAT2R HEK293) hAT2R membranes were prepared from human embryonic kidney (HEK293) cells which were stably transfected with recombinant human angiotensin-II receptor subtype 2 (hAT2R). Cells from the stable cell lines were expanded in tissue culture flasks to generate a large population of cells; cell pellet (>1 gm), and these cell pellets were stored frozen prior to initiating this membrane isolation procedure for each receptor isoform. Frozen cell pellets were thawed in ice-cold homogenization/resuspension buffer (50 mM Tris-HCl, pH 7.5) containing one Complete© protease inhibitor tablet with EDTA (Roche Diagnostics) per 50 mL buffer, and cell pellet was resuspended at a ratio of 10 mL homogenization buffer to gram of starting cell pellet. Cell suspension was homogenized with an overhead motor-driven Teflon-glass homogenizer using 15 to 20 strokes, followed by centrifugation at 1100×g for 10 minutes at 4° C. The supernatant was saved on ice, pellets were homogenized as before, and centrifuged at 1100×g for 10 minutes at 4° C. Both supernatants were combined and subsequently centrifuged at 35,000×g for 60 minutes at 4° C. The final centrifugation pellet (pellet 2) containing the isolated membranes was resuspended in buffer (4 to 5 mL/g of starting cell paste) containing protease inhibitors and quick frozen in liquid nitrogen prior to storage at -80° C. Protein concentration was determined using a BCA kit (ThermoScientific, Inc.) with bovine serum albumin (BSA) as standard. […] The assays were performed with a scintillation proximity assay (SPA) method using polyvinyltoluene (PVT) wheat germ agglutinin-coupled SPA beads (Perkin Elmer Cat. #RPNQ0001). Assay buffer containing BSA (50 mM Tris-HCl, pH 7.5, 150 mM NaCl, 0.1% w/v fatty-acid free BSA) was used for preparing radioligand, membrane and SPA bead reagent dilution to working stock concentrations. Reference control and test compounds were diluted to obtain ten-point concentration response curves using a four-fold serial dilution protocol onto assay plates, dispensed acoustically from DMSO stock using automated ECHO instrument technology (Labcyte, Inc.). Concentration response curves were routinely generated with the highest final assay concentration for the reference angiotensin-II control at 50 nM, and the highest final assay concentration for the test compounds at 50 μM. […] The hAT2R membrane was combined with PVT-WGA SPA beads to obtain a final assay concentration of 0.25 μg/well hAT2R membrane+0.1 mg/well PVT-WGA SPA bead. And the hAT1R membrane PVT-WGA SPA bead final concentrations was 0.5 μg/well hAT1R membrane+0.1 mg/well PVT-WGA SPA bead. […] For all assays, radioligand addition was followed by the addition of membrane-SPA bead mixture, i.e., the hAT2R membrane-SPA bead mixture (30 μL), the rAT2R membrane-SPA bead mixture, or the AT1R membrane-SPA bead mixture (30 μL) into the assay plate. All dispensing steps were added using a Multiflo FX (Biotek, Inc.) bulk dispensing instrument. After reagent addition steps, assay plates were sealed, and plate contents mixed for one minute on a benchtop micro-plate shaker. Following a 10-hour incubation at room temperature to allow for bead settling and radioligand binding, bound radioactivity was quantitated using a Microbeta Trilux scintillation counter (Perkin Elmer) and expressed as counts per minute (CPM). The unlabeled angiotensin-II control was included on each plate as an experimental assay reference. […] Data Analysis Procedures Compounds were tested in a 10-point concentration response curve (CRC) format, with each plate containing the positive control angiotensin-II positive reference compound, and experimental compounds.

Sequence of recombinant human angiotensin-II receptor subtype 2 (hAT2R) (P50052 whole entry): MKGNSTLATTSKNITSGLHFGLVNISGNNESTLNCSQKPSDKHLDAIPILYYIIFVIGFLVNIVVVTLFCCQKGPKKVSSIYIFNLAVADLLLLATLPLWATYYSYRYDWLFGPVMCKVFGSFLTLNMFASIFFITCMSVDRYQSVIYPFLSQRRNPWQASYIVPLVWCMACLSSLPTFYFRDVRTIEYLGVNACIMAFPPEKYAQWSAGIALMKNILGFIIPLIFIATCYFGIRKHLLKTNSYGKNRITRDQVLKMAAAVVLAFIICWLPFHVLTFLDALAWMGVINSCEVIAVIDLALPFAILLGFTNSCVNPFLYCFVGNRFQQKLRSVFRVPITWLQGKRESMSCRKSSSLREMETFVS

Row | SMILES | pKi
1 | CN(C(=O)N1CCC(CC(=O)N(c2ccccc2)C2CCCCC2)(C(=O)O)CC1)c1ccccc1F [Example 12, 4-[2-(N-cyclohexylanilino)-2-oxo-ethyl]-1-[(2-fluorophenyl)-methyl-carbamoyl]piperidine-4-carboxylic acid] | 9.28
2 | CN(C(=O)N1CCC(CC(=O)N(c2ccc(F)cc2)C2CCCCC2)(C(=O)O)CC1)c1ccc(F)cc1 [compound 21, 4-[2-(N-cyclohexyl-4-fluoro-anilino)-2-oxo-ethyl]-1-[(4-fluorophenyl)-methyl-carbamoyl]piperidine-4-carboxylic acid] | 8.40
3 | CN(C(=O)N1CCC(CC(=O)N(c2ccccc2)C2CCCOC2)(C(=O)O)CC1)c1ccc(F)cc1 (single isomer, unassigned) [Example 41A, 1-[(4-fluorophenyl)-methyl-carbamoyl]-4-[2-oxo-2-(N-tetrahydropyran-3-ylanilino)ethyl]piperidine-4-carboxylic acid] | 8.05
4 | O=C(N1CCC(CC(=O)N(c2ccccc2)c2ccc(F)cc2)(C(=O)O)CC1)N1CCc2ccccc21 [Example 58, 4-[2-(N-(4-fluorophenyl)anilino)-2-oxo-ethyl]-1-(indoline-1-carbonyl)piperidine-4-carboxylic acid] | 8.01
5 | CC(CC(F)F)N(C(=O)CC1(C(=O)O)CCN(C(=O)N(C)c2ccc(F)cc2)CC1)c1ccccc1 (racemic) [Example 36, 4-[2-(N-(3,3-difluoro-1-methyl-propyl)anilino)-2-oxo-ethyl]-1-[(4-fluorophenyl)-methyl-carbamoyl]piperidine-4-carboxylic acid] | 8.35
6 | CN(C(=O)N1CCC(CC(=O)N(c2ccccc2)C2CCCOC2)(C(=O)O)CC1)c1ccc(C2CC2)cc1 (racemic) [Example 45, 1-[(4-cyclopropylphenyl)-methyl-carbamoyl]-4-[2-oxo-2-(N-tetrahydropyran-3-ylanilino)ethyl]piperidine-4-carboxylic acid] | 8.51
7 | O=C(N1CCC(CC(=O)N(c2ccccc2)C2CCCC(F)(F)C2)(C(=O)O)CC1)N1CCc2ccc(F)cc21 (racemic) [Example 72, 4-[2-(N-(3,3-difluorocyclohexyl)anilino)-2-oxo-ethyl]-1-(6-fluoroindoline-1-carbonyl)piperidine-4-carboxylic acid] | 8.96
8 | O=C(CC1(C(=O)O)CCN(c2ncncc2C2CC2)CC1)N(c1ccccc1)c1ccccc1 [Example 5, 1-(5-cyclopropylpyrimidin-4-yl)-4-(2-(diphenylamino)-2-oxoethyl)piperidine-4-carboxylic acid] | 8.04
9 | CN(C(=O)N1CCC(CC(=O)N(c2ccccc2F)C2CCCC(F)(F)C2)(C(=O)O)CC1)c1ccccc1 (racemic) [Example 52, 4-[2-(N-(3,3-difluorocyclohexyl)-2-fluoro-anilino)-2-oxo-ethyl]-1-[methyl(phenyl)carbamoyl]piperidine-4-carboxylic acid] | 9.24
10 | CC1CCCC(N(C(=O)CC2(C(=O)O)CCN(C(=O)N(C)c3ccc(F)cc3)CC2)c2ccccc2)C1 (centres unmarked) [compound 22, 1-[(4-fluorophenyl)-methyl-carbamoyl]-4-[2-(N-(3-methyl-cyclohexyl)anilino)-2-oxo-ethyl]piperidine-4-carboxylic acid] | 9.24
11 | CN(C(=O)N1CCC(CC(=O)N(c2ccccc2)C2CCCOC2)(C(=O)O)CC1)c1ccc(C2CC2)cc1 (single isomer, unassigned) [Example 45B, 1-[(4-cyclopropylphenyl)-methyl-carbamoyl]-4-[2-oxo-2-(N-tetrahydropyran-3-ylanilino)ethyl]piperidine-4-carboxylic acid] | 8.57
12 | O=C(CC1(C(=O)O)CCN(c2ccccn2)CC1)N(c1ccccc1)C1CCCCC1 [Example 49, 4-[2-(N-cyclohexylanilino)-2-oxo-ethyl]-1-(2-pyridyl)piperidine-4-carboxylic acid] | 8.28
13 | O=C(N1CCC(CC(=O)N(c2ccccc2)c2cccc(F)c2)(C(=O)O)CC1)N1CCc2ccccc21 [Example 57, 4-[2-(N-(3-fluorophenyl)anilino)-2-oxo-ethyl]-1-(indoline-1-carbonyl)piperidine-4-carboxylic acid] | 8.11
14 | CCC(C1CC1)N(C(=O)CC1(C(=O)O)CCN(C(=O)N(C)c2ccc(F)cc2)CC1)c1ccccc1 (racemic) [Example 17, 4-[2-[N-(1-cyclopropylpropyl)anilino]-2-oxo-ethyl]-1-[(4-fluorophenyl)-methyl-carbamoyl]piperidine-4-carboxylic acid] | 8.24
15 | CCN(C(=O)N1CCC(CC(=O)N(c2ccccc2)C2CCCCC2)(C(=O)O)CC1)c1ccc(F)cc1 [Example 15, 4-[2-(N-cyclohexylanilino)-2-oxo-ethyl]-1-[ethyl-(4-fluorophenyl)carbamoyl]piperidine-4-carboxylic acid] | 8.77
16 | Cc1ccc(N(C(=O)CC2(C(=O)O)CCN(C(=O)N(C)c3ccc(F)cc3)CC2)c2ccccc2)cc1 [compound 29, 1-[(4-fluorophenyl)-methyl-carbamoyl]-4-[2-oxo-2-[N-(p-tolyl)anilino]ethyl]piperidine-4-carboxylic] | 8.51
17 | CN(C(=O)N1CCC(CC(=O)N(c2ccc(F)cc2)C2CCCC(F)(F)C2)(C(=O)O)CC1)c1ccccc1 (racemic) [Example 54, 4-[2-(N-(3,3-difluorocyclohexyl)-4-fluoro-anilino)-2-oxo-ethyl]-1-[methyl(phenyl)carbamoyl]piperidine-4-carboxylic acid] | 8.70
18 | CC(C)c1ccc(C(=O)N2CCC(CC(=O)N(c3ccccc3)C3CCCC(F)(F)C3)(C(=O)O)CC2)c(F)c1 (racemic) [Example 68, 4-[2-(N-(3,3-difluorocyclohexyl)anilino)-2-oxo-ethyl]-1-(2-fluoro-4-isopropyl-benzoyl)piperidine-4-carboxylic acid] | 8.53
19 | CC(C1CC1)N(C(=O)CC1(C(=O)O)CCN(C(=O)N(C)c2ccc(F)cc2)CC1)c1ccccc1 (single isomer, unassigned) [Example 43A, 4-[2-[N-(1-cyclopropylethyl)anilino]-2-oxo-ethyl]-1-[(4-fluorophenyl)-methyl-carbamoyl]piperidine-4-carboxylic acid] | 8.66
20 | CN(C(=O)N1CCC(CC(=O)N(c2ccccc2)C2CCCC2)(C(=O)O)CC1)c1ccc(F)cc1 [Example 9, 4-[2-(N-cyclopentylanilino)-2-oxo-ethyl]-1-[(4-fluorophenyl)-methyl-carbamoyl]piperidine-4-carboxylic acid] | 8.58
21 | CC(C(=O)N1CCC(CC(=O)N(c2ccccc2)C2CCCC(F)(F)C2)(C(=O)O)CC1)c1ccccc1F (racemic) [Example 64, 4-[2-(N-(3,3-difluorocyclohexyl)anilino)-2-oxo-ethyl]-1-[2-(2-fluorophenyl)propanoyl]piperidine-4-carboxylic acid] | 8.98
22 | O=C(N1CCC(CC(=O)N(c2ccccc2)C2CCCC(F)(F)C2)(C(=O)O)CC1)N1CCc2ccccc21 (single isomer, unassigned) [Example 35A, 4-[2-(N-(3,3-difluorocyclohexyl)anilino)-2-oxo-ethyl]-1-(indoline-1-carbonyl)piperidine-4-carboxylic acid] | 7.97
23 | CC(C)N(C(=O)N1CCC(CC(=O)N(c2ccccc2)c2ccccc2F)(C(=O)O)CC1)c1ccc(F)cc1 [Example 38, 4-[2-(N-(2-fluorophenyl)anilino)-2-oxo-ethyl]-1-[(4-fluorophenyl)-isopropyl-carbamoyl]piperidine-4-carboxylic acid] | 8.19
